For one test, the target named is P300 (Homo sapiens, UniProt Q09472). As to the kind of experiment: Immunoblotting of P300 protein levels in LNCaP or 22RV1 cells. It is filed as cell-based. On the set-up: LNCaP or 22RV1 cells that express CBP/P300 proteins were treated with GNE-781 or the bivalent compounds; endogenous in cells; host or cells: LNCaP (clone FGC) or 22RV1 cells. The following applies: read-out: Degradation (10 nM). Put shortly:
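LNCaP or 22RV1 cells treated with compounds for indicated hours, DMSO as negative control. RIPA lysates resolved by SDS-PAGE and immunoblotted for P300 or CBP, tubulin or vinculin as loading control; chemiluminescent bands quantitated.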
On the technique in general: A western blot detects proteins with antibodies after separation by electrophoresis.

For another test, the system named is LNCaP cells. As to the kind of experiment: LNCaP cell viability assay (CellTiter-Glo). In kind it is cell-based. The following applies: Homo sapiens, 72 h, LNCaP prostate cancer cell viability inhibition, 3 days. An outline of the steps:
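LNCaP cells, 5000/well, exposed to compounds in 12-point 3-fold serial dilution (top 10 μM) for 3 days. Viability by CellTiter-Glo luminescence, normalized to untreated cells; IC50 by least-squares nonlinear regression.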

[1] abbreviates: percentage of inhibition of p300 at 10 nM (Table 2).
Where [2] appears, read: percentage of inhibition of p300 at 10 nM (Table 3).

Like-named read-outs stand apart in the source and are kept apart here.

Sequence of P300 (Q09472 whole entry): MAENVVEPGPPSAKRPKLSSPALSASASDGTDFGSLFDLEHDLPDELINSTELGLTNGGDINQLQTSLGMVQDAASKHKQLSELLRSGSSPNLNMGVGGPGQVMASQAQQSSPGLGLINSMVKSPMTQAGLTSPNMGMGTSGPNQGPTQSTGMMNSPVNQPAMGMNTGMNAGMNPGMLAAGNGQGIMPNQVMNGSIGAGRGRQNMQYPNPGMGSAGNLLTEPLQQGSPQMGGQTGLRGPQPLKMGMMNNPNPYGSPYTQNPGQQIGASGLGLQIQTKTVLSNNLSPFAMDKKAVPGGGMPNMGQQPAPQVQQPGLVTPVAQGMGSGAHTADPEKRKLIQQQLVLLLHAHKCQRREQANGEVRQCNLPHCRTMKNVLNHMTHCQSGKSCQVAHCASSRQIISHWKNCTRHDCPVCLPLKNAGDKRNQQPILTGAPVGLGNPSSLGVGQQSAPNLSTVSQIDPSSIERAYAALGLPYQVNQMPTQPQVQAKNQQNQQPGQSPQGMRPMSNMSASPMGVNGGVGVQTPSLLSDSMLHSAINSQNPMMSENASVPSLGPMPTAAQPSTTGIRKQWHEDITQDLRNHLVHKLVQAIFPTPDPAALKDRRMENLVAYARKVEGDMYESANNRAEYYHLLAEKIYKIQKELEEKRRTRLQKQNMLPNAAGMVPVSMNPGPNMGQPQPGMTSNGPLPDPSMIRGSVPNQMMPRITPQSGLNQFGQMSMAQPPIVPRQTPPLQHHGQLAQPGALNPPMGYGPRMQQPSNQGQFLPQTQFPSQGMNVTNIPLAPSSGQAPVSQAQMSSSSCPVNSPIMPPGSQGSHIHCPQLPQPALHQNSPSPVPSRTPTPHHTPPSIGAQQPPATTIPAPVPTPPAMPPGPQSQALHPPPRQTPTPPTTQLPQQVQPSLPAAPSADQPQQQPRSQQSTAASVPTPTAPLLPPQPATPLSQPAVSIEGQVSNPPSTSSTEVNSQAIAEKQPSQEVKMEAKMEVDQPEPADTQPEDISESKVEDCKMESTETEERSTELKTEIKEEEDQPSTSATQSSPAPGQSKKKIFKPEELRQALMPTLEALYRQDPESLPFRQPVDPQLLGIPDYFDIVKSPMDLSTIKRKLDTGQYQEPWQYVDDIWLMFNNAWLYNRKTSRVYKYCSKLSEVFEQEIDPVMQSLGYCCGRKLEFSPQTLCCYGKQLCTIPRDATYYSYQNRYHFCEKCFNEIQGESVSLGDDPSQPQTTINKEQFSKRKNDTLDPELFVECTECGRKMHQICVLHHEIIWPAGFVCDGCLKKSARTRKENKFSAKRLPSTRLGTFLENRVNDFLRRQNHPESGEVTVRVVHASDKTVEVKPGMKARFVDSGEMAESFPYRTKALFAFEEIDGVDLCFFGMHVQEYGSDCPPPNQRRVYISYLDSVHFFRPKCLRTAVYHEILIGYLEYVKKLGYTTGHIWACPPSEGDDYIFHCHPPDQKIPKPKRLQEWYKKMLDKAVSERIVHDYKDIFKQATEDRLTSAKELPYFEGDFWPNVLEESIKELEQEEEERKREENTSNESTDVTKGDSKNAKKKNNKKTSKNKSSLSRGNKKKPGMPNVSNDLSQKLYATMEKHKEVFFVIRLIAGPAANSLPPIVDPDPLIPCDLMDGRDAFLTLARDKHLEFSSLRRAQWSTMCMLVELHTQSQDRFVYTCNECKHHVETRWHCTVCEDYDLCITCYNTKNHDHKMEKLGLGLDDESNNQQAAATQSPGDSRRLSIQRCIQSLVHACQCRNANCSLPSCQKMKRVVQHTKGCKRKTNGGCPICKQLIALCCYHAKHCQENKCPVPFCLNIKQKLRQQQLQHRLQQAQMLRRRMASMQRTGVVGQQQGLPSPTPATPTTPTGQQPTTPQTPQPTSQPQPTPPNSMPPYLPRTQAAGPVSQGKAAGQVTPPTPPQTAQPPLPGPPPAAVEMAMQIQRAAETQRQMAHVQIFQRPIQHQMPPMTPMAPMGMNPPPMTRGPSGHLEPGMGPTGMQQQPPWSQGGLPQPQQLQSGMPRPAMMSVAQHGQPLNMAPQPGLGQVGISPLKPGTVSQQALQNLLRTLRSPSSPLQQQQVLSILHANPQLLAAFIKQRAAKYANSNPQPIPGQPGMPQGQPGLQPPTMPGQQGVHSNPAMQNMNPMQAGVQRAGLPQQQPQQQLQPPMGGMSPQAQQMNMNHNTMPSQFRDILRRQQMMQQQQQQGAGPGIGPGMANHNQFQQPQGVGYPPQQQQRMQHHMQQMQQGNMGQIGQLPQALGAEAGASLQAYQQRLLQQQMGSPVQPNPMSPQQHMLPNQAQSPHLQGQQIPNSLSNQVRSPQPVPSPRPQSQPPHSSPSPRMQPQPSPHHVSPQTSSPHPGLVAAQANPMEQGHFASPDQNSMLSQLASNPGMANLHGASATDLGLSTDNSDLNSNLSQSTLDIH

The term IC50 denotes the point on the concentration scale where inhibition reaches its midpoint. A lower IC50 goes with inhibition by little substance. Turning to `CNC(=O)N1CCc2c(c(N3CCCc4cc(-c5cnn(CC(=O)NCCCCCCCCNc6cccc7c6C(=O)N(C6CCC(=O)NC6=O)C7=O)c5)c(C(F)F)cc43)nn2C2CCOCC2)C1` (centres unmarked) [P-043, 3-(7-(difluoromethyl)-6-(1-(2-((8-((2-(2,6-dioxopiperidin-3-yl)-1,3-dioxoisoindolin-4-yl)amino)octyl)amino)-2-oxoethyl)-1H-pyrazol-4-yl)-3,4-dihydroquinolin-1(2H)-yl)-N-methyl-1-(tetrahydro-2H-pyran-4-yl)-1,4,6,7-tetrahydro-5H-pyrazolo[4,3-c]pyridine-5-carboxamide], the inhibition at 0.01 µM at P300 (setting [1]) is 20 to 50%. Moreover, in the test on LNCaP cells (CellTiter-Glo (Table 2)), the IC50 was 15.4 nM.

In the case of `CNC(=O)N1CCc2c(c(N3CCCc4cc(-c5cnn(CC(=O)NCC(=O)N[C@H](C(=O)N6C[C@H](O)C[C@H]6C(=O)NCc6ccc(-c7scnc7C)cc6)C(C)(C)C)c5)c(C(F)F)cc43)nn2C2CCOCC2)C1` [P-044], the inhibition at 0.01 µM at P300 (setting [1]) is less than 20%. The molecule also gave a concentration for half-maximal inhibition (IC50) with LNCaP cells (CellTiter-Glo (Table 2)) greater than 10000 nM.

On to `CNC(=O)N1CCc2c(c(N3CCCc4cc(-c5cnn(CC(=O)NCCC(=O)N[C@H](C(=O)N6C[C@H](O)C[C@H]6C(=O)NCc6ccc(-c7scnc7C)cc6)C(C)(C)C)c5)c(C(F)F)cc43)nn2C2CCOCC2)C1` [P-045, 3-(7-(Difluoromethyl)-6-(1-(2-((3-(((S)-1-((2S,4R)-4-hydroxy-2-((4-(4-methylthiazol-5-yl)benzyl)carbamoyl)pyrrolidin-1-yl)-3,3-dimethyl-1-oxobutan-2-yl)amino)-3-oxopropyl)amino)-2-oxoethyl)-1H-pyrazol-4-yl)-3,4-dihydroquinolin-1(2H)-yl)-N-methyl-1-(tetrahydro-2H-pyran-4-yl)-1,4,6,7-tetrahydro-5H-pyrazolo[4,3-c]pyridine-5-carboxamide], for which the inhibition at 0.01 µM on P300 (setting [1]) was less than 20%. The same molecule displayed an IC50 in the test with LNCaP cells (CellTiter-Glo (Table 2)) greater than 10000 nM.

Consider `CNC(=O)N1CCc2c(c(N3CCCc4cc(-c5cnn(CC(=O)NCCCCC(=O)N[C@H](C(=O)N6C[C@H](O)C[C@H]6C(=O)NCc6ccc(-c7scnc7C)cc6)C(C)(C)C)c5)c(C(F)F)cc43)nn2C2CCOCC2)C1` [P-046, 3-(7-(Difluoromethyl)-6-(1-(2-((5-(((S)-1-((2S,4R)-4-hydroxy-2-((4-(4-methylthiazol-5-yl)benzyl)carbamoyl)pyrrolidin-1-yl)-3,3-dimethyl-1-oxobutan-2-yl)amino)-5-oxopentyl)amino)-2-oxoethyl)-1H-pyrazol-4-yl)-3,4-dihydroquinolin-1(2H)-yl)-N-methyl-1-(tetrahydro-2H-pyran-4-yl)-1,4,6,7-tetrahydro-5H-pyrazolo[4,3-c]pyridine-5-carboxamide], for which the inhibition at 0.01 µM at P300 (setting [1]) was less than 20%. The concentration for half-maximal inhibition (IC50) in the test with LNCaP cells (CellTiter-Glo (Table 2)) came to 9040 nM.

For the molecule `CNC(=O)N1CCc2c(c(N3CCCc4cc(-c5cnn(CC(=O)NCCCCCC(=O)N[C@H](C(=O)N6C[C@H](O)C[C@H]6C(=O)NCc6ccc(-c7scnc7C)cc6)C(C)(C)C)c5)c(C(F)F)cc43)nn2C2CCOCC2)C1` [P-047, 3-(7-(Difluoromethyl)-6-(1-(2-((6-(((S)-1-((2S,4R)-4-hydroxy-2-((4-(4-methylthiazol-5-yl)benzyl)carbamoyl)pyrrolidin-1-yl)-3,3-dimethyl-1-oxobutan-2-yl)amino)-6-oxohexyl)amino)-2-oxoethyl)-1H-pyrazol-4-yl)-3,4-dihydroquinolin-1(2H)-yl)-N-methyl-1-(tetrahydro-2H-pyran-4-yl)-1,4,6,7-tetrahydro-5H-pyrazolo[4,3-c]pyridine-5-carboxamide], the inhibition at 0.01 µM at P300 (setting [1]) was less than 20%. For the same molecule, the IC50 with LNCaP cells (CellTiter-Glo (Table 2)) came to 2560 nM.

For the molecule `CNC(=O)N1CCc2c(c(N3CCCc4cc(-c5cnn(CC(=O)NCCCCCCCC(=O)N[C@H](C(=O)N6C[C@H](O)C[C@H]6C(=O)NCc6ccc(-c7scnc7C)cc6)C(C)(C)C)c5)c(C(F)F)cc43)nn2C2CCOCC2)C1` [P-048, 3-(7-(Difluoromethyl)-6-(1-(2-((8-(((S)-1-((2S,4R)-4-hydroxy-2-((4-(4-methylthiazol-5-yl)benzyl)carbamoyl)pyrrolidin-1-yl)-3,3-dimethyl-1-oxobutan-2-yl)amino)-8-oxooctyl)amino)-2-oxoethyl)-1H-pyrazol-4-yl)-3,4-dihydroquinolin-1(2H)-yl)-N-methyl-1-(tetrahydro-2H-pyran-4-yl)-1,4,6,7-tetrahydro-5H-pyrazolo[4,3-c]pyridine-5-carboxamide], the inhibition at 0.01 µM at P300 (setting [1]) is less than 20%. Further, in the test on LNCaP cells (CellTiter-Glo (Table 2)), the IC50 came to 471 nM.

In the case of `CNC(=O)N1CCc2c(c(N3CCCc4cc(-c5cnn(CC(=O)NCCCCCCCCCCC(=O)N[C@H](C(=O)N6C[C@H](O)C[C@H]6C(=O)NCc6ccc(-c7scnc7C)cc6)C(C)(C)C)c5)c(C(F)F)cc43)nn2C2CCOCC2)C1` [P-050, 3-(7-(Difluoromethyl)-6-(1-(2-((11-(((S)-1-((2S,4R)-4-hydroxy-2-((4-(4-methylthiazol-5-yl)benzyl)carbamoyl)pyrrolidin-1-yl)-3,3-dimethyl-1-oxobutan-2-yl)amino)-11-oxoundecyl)amino)-2-oxoethyl)-1H-pyrazol-4-yl)-3,4-dihydroquinolin-1(2H)-yl)-N-methyl-1-(tetrahydro-2H-pyran-4-yl)-1,4,6,7-tetrahydro-5H-pyrazolo[4,3-c]pyridine-5-carboxamide], the inhibition at 0.01 µM on P300 (setting [1]) fell in the range of 20 to 50%. For the same molecule, in the test with LNCaP cells (CellTiter-Glo (Table 2)), the IC50 worked out at 111 nM.

Regarding `CNC(=O)N1CCc2c(c(N3CCCc4cc(-c5cnn(C)c5)c(C(F)F)cc43)nn2C2CCN(C(=O)CCOCCNc3cccc4c3C(=O)N(C3CCC(=O)NC3=O)C4=O)CC2)C1` (centres unmarked) [P-051, 3-(7-(Difluoromethyl)-6-(1-methyl-1H-pyrazol-4-yl)-3,4-dihydroquinolin-1(2H)-yl)-1-(1-(3-(2-((2-(2,6-dioxopiperidin-3-yl)-1,3-dioxoisoindolin-4-yl)amino)ethoxy)propanoyl)piperidin-4-yl)-N-methyl-1,4,6,7-tetrahydro-5H-pyrazolo[4,3-c]pyridine-5-carboxamide], on P300 (setting [2]), the inhibition at 0.01 µM was less than 20%. In addition, in the test on LNCaP cells (CellTiter-Glo (Table 3)), the half-maximal inhibitory concentration (IC50) is 27.5 nM.

On to `CNC(=O)N1CCc2c(c(N3CCCc4cc(-c5cnn(C)c5)c(C(F)F)cc43)nn2C2CCN(C(=O)CCOCCOCCNc3cccc4c3C(=O)N(C3CCC(=O)NC3=O)C4=O)CC2)C1` (centres unmarked) [P-052, 3-(7-(Difluoromethyl)-6-(1-methyl-1H-pyrazol-4-yl)-3,4-dihydroquinolin-1(2H)-yl)-1-(1-(3-(2-(2-((2-(2,6-dioxopiperidin-3-yl)-1,3-dioxoisoindolin-4-yl)amino)ethoxy)ethoxy)propanoyl)piperidin-4-yl)-N-methyl-1,4,6,7-tetrahydro-5H-pyrazolo[4,3-c]pyridine-5-carboxamide], for which the inhibition at 0.01 µM on P300 (setting [2]) was less than 20%. Moreover, the IC50 with LNCaP cells (CellTiter-Glo (Table 3)) stood at 105 nM.

As for `CNC(=O)N1CCc2c(c(N3CCCc4cc(-c5cnn(C)c5)c(C(F)F)cc43)nn2C2CCN(C(=O)CCOCCOCCOCCNc3cccc4c3C(=O)N(C3CCC(=O)NC3=O)C4=O)CC2)C1` (centres unmarked) [P-053, 3-(7-(Difluoromethyl)-6-(1-methyl-1H-pyrazol-4-yl)-3,4-dihydroquinolin-1(2H)-yl)-1-(1-(3-(2-(2-(2-((2-(2,6-dioxopiperidin-3-yl)-1,3-dioxoisoindolin-4-yl)amino)ethoxy)ethoxy)ethoxy)propanoyl)piperidin-4-yl)-N-methyl-1,4,6,7-tetrahydro-5H-pyrazolo[4,3-c]pyridine-5-carboxamide], the inhibition at 0.01 µM on P300 (setting [2]) fell in the range of 20 to 50%. For the same molecule, in the test with LNCaP cells (CellTiter-Glo (Table 3)), the IC50 was 76.5 nM.

`CNC(=O)N1CCc2c(c(N3CCCc4cc(-c5cnn(C)c5)c(C(F)F)cc43)nn2C2CCN(C(=O)CCOCCOCCOCCOCCNc3cccc4c3C(=O)N(C3CCC(=O)NC3=O)C4=O)CC2)C1` (centres unmarked) [P-054, 3-(7-(Difluoromethyl)-6-(1-methyl-1H-pyrazol-4-yl)-3,4-dihydroquinolin-1(2H)-yl)-1-(1-(1-((2-(2,6-dioxopiperidin-3-yl)-1,3-dioxoisoindolin-4-yl)amino)-3,6,9,12-tetraoxapentadecan-15-oyl)piperidin-4-yl)-N-methyl-1,4,6,7-tetrahydro-5H-pyrazolo[4,3-c]pyridine-5-carboxamide]: the inhibition at 0.01 µM at P300 (setting [2]) was less than 20%. For the same molecule, 122 nM corresponded to half-maximal inhibition with LNCaP cells (CellTiter-Glo (Table 3)) (IC50).

Regarding `CNC(=O)N1CCc2c(c(N3CCCc4cc(-c5cnn(C)c5)c(C(F)F)cc43)nn2C2CCN(C(=O)CCOCCOCCOCCOCCOCCNc3cccc4c3C(=O)N(C3CCC(=O)NC3=O)C4=O)CC2)C1` (centres unmarked) [P-055, 3-(7-(Difluoromethyl)-6-(1-methyl-1H-pyrazol-4-yl)-3,4-dihydroquinolin-1(2H)-yl)-1-(1-(1-((2-(2,6-dioxopiperidin-3-yl)-1,3-dioxoisoindolin-4-yl)amino)-3,6,9,12,15-pentaoxaoctadecan-18-oyl)piperidin-4-yl)-N-methyl-1,4,6,7-tetrahydro-5H-pyrazolo[4,3-c]pyridine-5-carboxamide], the inhibition at 0.01 µM at P300 (setting [2]) is less than 20%. For the same molecule, in the test with LNCaP cells (CellTiter-Glo (Table 3)), the half-inhibitory concentration (IC50) is 161 nM.

Regarding `CNC(=O)N1CCc2c(c(N3CCCc4cc(-c5cnn(C)c5)c(C(F)F)cc43)nn2C2CCN(C(=O)CCC(=O)N[C@H](C(=O)N3C[C@H](O)C[C@H]3C(=O)NCc3ccc(-c4scnc4C)cc3)C(C)(C)C)CC2)C1` [P-056, 3-(7-(Difluoromethyl)-6-(1-methyl-1H-pyrazol-4-yl)-3,4-dihydroquinolin-1(2H)-yl)-1-(1-(4-(((S)-1-((2S,4R)-4-hydroxy-2-((4-(4-methylthiazol-5-yl)benzyl)carbamoyl)pyrrolidin-1-yl)-3,3-dimethyl-1-oxobutan-2-yl)amino)-4-oxobutanoyl)piperidin-4-yl)-N-methyl-1,4,6,7-tetrahydro-5H-pyrazolo[4,3-c]pyridine-5-carboxamide], on P300 (setting [2]), the inhibition at 0.01 µM is less than 20%. In the test on LNCaP cells (CellTiter-Glo (Table 3)), the IC50 is 75.6 nM.

For the origin of these results see US20230073777A1, “CYCLIC-AMP RESPONSE ELEMENT BINDING PROTEIN (CBP) AND/OR ADENOVIRAL E1A BINDING PROTEIN OF 300 KDA (P300) DEGRADATION COMPOUNDS AND METHODS OF USE” (CULLGEN (SHANGHAI), INC., priority 2019, published 2023).
